Results as given in publication PMC9229255, “New Cladiellin-Type Diterpenoids from the South China Sea Soft Coral Cladiella krempfi: Structures and Molecular Docking Analysis in EGFRs” (Marine Drugs, 2022).

How the values were obtained:
[1] = molecular target: T1, EGFR (Homo sapiens, UniProt P00533); assay: EGFR activity assay (kinase inhibition); type: biochemical; conditions: concentration 20000 nM; read-out: EGFR inhibitory data, Mean (percentage of inhibition)
Description: Six compounds were screened on EGFRs using staurosporine obtained from MedChemExpress (Cat. No. HY-15141; Lot. No. 41248) as the reference compound. In the bioassay for the EGFRs, testing kinases were performed in 1× kinase base buffer containing 50 mM HEPES (pH 7.5) and 0.0015% Brij-35, and stop buffer containing 100 mM HEPES (pH 7.5), 0.0015% Brij-35, 0.2% Coating Reagent #3, and 50 mM EDTA. For the compound preparing part, compounds were diluted to 50X of the final desired highest inhibitor concentration in the reaction by 100% DMSO, and 100 µL of the compound dilution was transferred to a well in a 96-well plate. Additionally, 100 µL of 100% DMSO was added to two empty wells for a no-compound control and a no-enzyme control in the same 96-well plate, which was marked as the source plate. […]. The compounds were mixed in an intermediate plate for 10 min on a shaker. For the assay plate, 5 µL of each well from the 96-well intermediate plate was transferred to a 384-well plate in duplicates. For the kinase reaction, 2.5× enzyme solution and 2.5× peptide solution were prepared. Moreover, 5 µL of compound were settled in the assay plate with 10% DMSO. Additionally, 10 µL of 2.5× enzyme solution was added to each well of the 384-well assay plate that was incubated at room temperature for 10 min. Then, 10 µL of 2.5× peptide solution was added to each well of the 384-well that was incubated at 28 °C for 30 min and stopped by 25 µL stop buffer. The percentage of inhibition was estimated using max-conversion divided by the max-min, and inhibition values were converted by convert conversion values from the caliper program. IC50 values were obtained from fitting the data in the XLfit excel add-in version 4.3.1.

[2] = molecular target: T1, EGFR; design: method as in PMID 27940262; conditions: read-out: EGFR inhibitory activity IC50; cited from earlier work
[3] = test system: mouse lymphocytic leukemia L1210 cells; design: method as in doi:10.1021/jo00269a027; conditions: as low as; cited from earlier work

T1 sequence (P00533 25-1210): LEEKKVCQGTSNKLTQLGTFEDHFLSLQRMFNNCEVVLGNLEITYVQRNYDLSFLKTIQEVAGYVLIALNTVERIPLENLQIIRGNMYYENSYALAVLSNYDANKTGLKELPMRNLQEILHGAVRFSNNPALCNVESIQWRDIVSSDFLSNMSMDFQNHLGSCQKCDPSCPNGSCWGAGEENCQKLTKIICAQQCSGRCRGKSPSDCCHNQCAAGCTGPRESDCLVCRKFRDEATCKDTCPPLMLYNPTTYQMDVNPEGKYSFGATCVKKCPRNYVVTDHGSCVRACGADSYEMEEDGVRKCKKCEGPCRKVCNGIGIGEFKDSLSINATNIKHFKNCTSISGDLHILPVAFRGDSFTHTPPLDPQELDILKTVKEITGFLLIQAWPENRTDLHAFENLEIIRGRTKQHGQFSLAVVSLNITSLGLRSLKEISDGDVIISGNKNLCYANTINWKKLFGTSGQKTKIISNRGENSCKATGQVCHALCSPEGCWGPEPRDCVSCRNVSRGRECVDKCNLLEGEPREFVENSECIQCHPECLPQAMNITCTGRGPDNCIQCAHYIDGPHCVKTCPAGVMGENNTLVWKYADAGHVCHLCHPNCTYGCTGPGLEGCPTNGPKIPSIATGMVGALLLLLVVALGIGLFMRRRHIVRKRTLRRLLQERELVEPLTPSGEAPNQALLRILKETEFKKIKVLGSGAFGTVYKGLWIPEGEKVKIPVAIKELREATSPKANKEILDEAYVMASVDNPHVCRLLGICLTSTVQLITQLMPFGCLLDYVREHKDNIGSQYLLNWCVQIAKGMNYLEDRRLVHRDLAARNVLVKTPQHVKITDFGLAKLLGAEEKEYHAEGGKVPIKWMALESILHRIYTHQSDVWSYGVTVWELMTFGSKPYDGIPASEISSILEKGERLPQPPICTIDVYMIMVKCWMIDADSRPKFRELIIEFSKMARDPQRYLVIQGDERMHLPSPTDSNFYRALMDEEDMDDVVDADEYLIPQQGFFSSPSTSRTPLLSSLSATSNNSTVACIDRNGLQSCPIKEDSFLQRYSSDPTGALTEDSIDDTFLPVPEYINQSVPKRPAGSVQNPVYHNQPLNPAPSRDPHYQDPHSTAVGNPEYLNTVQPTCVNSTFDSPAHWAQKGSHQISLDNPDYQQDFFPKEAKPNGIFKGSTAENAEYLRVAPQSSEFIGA

Work on C=C1CC[C@H](C(C)C)[C@@H]2[C@H]1[C@@H]1O[C@H]2[C@](C)(OC(=O)CCC)CC[C@H](O)C(=C)[C@H]1O [Compound 3, litophynol A] yielded an inhibition at 20 µM [1] of -3.8%.
For CCCC(=O)O[C@]1(C)CC[C@H](C(C)C)[C@@H]2[C@H]1[C@H]1C[C@](C)(O)[C@@H](O)CC[C@@](C)(OC(C)=O)[C@@H]2O1 [pachycladin A], the IC50 [2] is listed as 500 nM.
For C=C1CC[C@H](C(C)C)[C@@H]2[C@H]1[C@H]1C[C@](C)(O)[C@@H](O)CC[C@@](C)(OC(=O)CCC)[C@@H]2O1 [Compound 6, litophynin E], the inhibition at 20 µM [1] was -4.9%.
C=C1CC[C@H](C(C)C)[C@@H]2[C@H]1[C@@H]1O[C@H]2[C@](C)(OC(=O)CCC)CC[C@H](O)C(=C)[C@H]1OC(=O)CCC [Compound 4, 8-butyryl-litophynol A] showed an inhibition at 20 µM [1] of -3.4%.
For C=C1CC[C@H](C(C)C)[C@@H]2[C@H]1[C@H]1C[C@](C)(O)[C@@H](O)CC[C@@](C)(O)[C@@H]2O1 [sclerophytin A], the “concentration showing significant cytotoxicity” value [3] is listed as 1 ng/mL.
Work on C=C1CC[C@H](C(C)C)[C@@H]2[C@H]1[C@@H]1O[C@H]2[C@](C)(OC(=O)CCC)CC[C@H](OC)[C@@](C)(O)[C@H]1O [Compound 5, kremfielin B] yielded an inhibition at 20 µM [1] of -7.5%.
Molecule C=C1C(OO)CCC(C)(OC(=O)CCC)C2OC(C1OC(C)=O)C1C(=C)C(O)CC(C(C)C)C12 (stereo not drawn) [Compound 2, litophynol D] has an inhibition at 20 µM [1] of -12.5%.
C=C1C(O)CCC(C)(OC(=O)CCC)C2OC(C1OC(C)=O)C1C(=C)C(O)CC(C(C)C)C12 (stereo not drawn) [Compound 1, litophynol C] showed an inhibition at 20 µM [1] of -9.9% and a melting point of 183 to 184 °C.
